This note sets out measurements from US11565992B2, “Methods for separation of azeotrope or azeotrope-like compositions of trifluoroiodomethane (CF3I) and trifluoroacetyl chloride (CF3COCI)” (Honeywell International Inc., priority 2020, dated 2023).

A short description of data set [1]: Differential solubility in acetonitrile (PTx method, NRTL model). The settings on record: at or near ambient conditions; for solubility in acetonitrile: solvent acetonitrile, from NRTL model generated from the PTx data (FIG. 7).
Description: Static Vapor-Liquid Equilibrium Methods are a class of experimental techniques that can be used to identify thermodynamic interactions between a solvent (i.e. absorbing species) and a target solute (i.e. species being absorbed). One such technique, known as the PTx method, collects measurements of the total saturation pressure (“P”) exerted by mixtures of known compositions (“x”) at fixed temperatures (“T”) and cell volumes. […] Using data collected from the PTx experiment, as well as pure component properties of constituents of the mixtures, the thermodynamic properties of the mixtures can be accurately characterized by fitting the component's interaction parameters in a well-defined thermodynamic equation; one such equation is the Nonrandom, Two-liquid (NRTL) activity coefficient model by Renon and Prausnitz (Local Compositions in Thermodynamic Excess Functions for Liquid Mixtures, AIChE Journal, Vol. 14, January 1968, pp. 135-144).
(§1) From a well-characterized thermodynamic model (such as NRTL fit against PTx data), solubility curves can be generated. The solubility is defined as the liquid composition of the solute in the liquid phase at saturation, generally as a function of pressure and temperature. By comparing solubility curves for different solutes, the solvent's selectivity (i.e. preference) towards a particular solute can be identified; the larger the selectivity the more the solvent prefers to absorb one species while rejecting the other.
Following the same procedure as described in Example 7A, the PTx behavior of trifluoroiodomethane (CF3I) with acetonitrile and trifluoroacetyl chloride (CF3COCl) with acetonitrile was studied at temperatures of −10° C., 10° C., 30° C., and 50° C. […]
(§2) Using the NRTL model generated from the PTx data, the solubility of both trifluoroiodomethane (CF3I) and trifluoroacetyl chloride (CF3COCl) for a given temperature and pressure can be determined and compared.
A short description of data set [2]: Differential solubility in toluene (PTx method, NRTL model). The settings on record: around ambient conditions; for solubility in toluene: solvent toluene, from NRTL model generated from the PTx data (FIG. 5).
Description: One such technique, known as the PTx method, collects measurements of the total saturation pressure (“P”) exerted by mixtures of known compositions (“x”) at fixed temperatures (“T”) and cell volumes. […] Using data collected from the PTx experiment, as well as pure component properties of constituents of the mixtures, the thermodynamic properties of the mixtures can be accurately characterized by fitting the component's interaction parameters in a well-defined thermodynamic equation; one such equation is the Nonrandom, Two-liquid (NRTL) activity coefficient model by Renon and Prausnitz (Local Compositions in Thermodynamic Excess Functions for Liquid Mixtures, AIChE Journal, Vol. 14, January 1968, pp. 135-144).
as §1
A set of volume calibrated PTx cells were used to measure the solubility characteristics of trifluoroiodomethane (CF3I) in toluene as well as trifluoroacetyl chloride (CF3COCl) in toluene. Mixtures of trifluoroiodomethane (CF3I) and toluene as well as trifluoroacetyl chloride (CF3COCl) and toluene were gravimetrically prepared into evacuated PTx cells. […] Once at equilibrium, recognized when temperature and pressures of each cell remain stable for several hours, the local temperature and saturation pressures of each cell were recorded and adjustments for the next set point were made. […]
as §2
Data set [3] in a line: Differential solubility in mineral oil (PTx method, NRTL model). The settings on record: solvent mineral oil; at or near ambient conditions; from NRTL model generated from the PTx data (FIG. 6).
Description: as §1
Following the same procedure described in Example 7A, the PTx behavior of trifluoroiodomethane (CF3I) with mineral oil and trifluoroacetyl chloride (CF3COCl) with mineral oil was studied at temperatures of 0° C., 20° C., 40° C., and 60° C. Unlike toluene (a single aromatic hydrocarbon entity), the mineral oil solvent comprised a mixture several types of hydrocarbons such as alkanes, cycloalkanes, and others. From the pressure-temperature-composition data, the binary interaction parameters of trifluoroiodomethane (CF3I) with mineral oil and trifluoroacetyl chloride (CF3COCl) with mineral oil for the NRTL activity coefficient model were identified.
as §2

In the case of `CC#N` [acetonitrile], in data set [1] (acetonitrile), the “selectivity of solvent towards CF3I over CF3COCl” value was “about 2.5 times”.

Regarding `Cc1ccccc1` [toluene], the “selectivity of solvent towards CF3I over CF3COCl” value in data set [2] (toluene) is “about 3.5 times”.

Turning to `O=C(Cl)C(F)(F)F` [trifluoroacetyl chloride], the solubility in acetonitrile entry in data set [1] is “about 15.8 mass %”. In addition, in data set [3], the “solubility in mineral oil” value is “about 3.6 mass %”. Moreover, in data set [2], the solubility in toluene result is listed as “about 11.6 mass %”.

Take `FC(F)(F)I` [trifluoroiodomethane]: the solubility in acetonitrile entry in data set [1] was “about 39.0 mass %”. Moreover, the “solubility in mineral oil” value in data set [3] is “about 12.2 mass %”. Also, in data set [2], the solubility in toluene result is reported as “about 40.8 mass %”.
